Data as given in US8617546B2, “Anticancer agent comprising anti-PD-1 antibody or anti-PD-L1 antibody” (Seoul National University Industry Foundation, priority 2008, dated 2013).

Legend:
[1] = test system: iNKT cells; experiment: iNKT cell activation in vivo: serum IFN-γ and IL-4 by ELISA after α-GC treatment; set-up: species or system C57BL/6 mice; conditions: 2 μg α-GC; FIG. 3
Description: C57BL/6 mice was injected with 200 μg of the control rat IgG, the anti-PD-1 mAb, the anti-PD-L1 mAb or the anti-PD-L2 mAb 24 hrs before treatment with 2 μg of α-GC. Sera were obtained at 0, 2, 6, 12, 24, 48 and 72 hrs after the treatment, followed by ELISA analysis for IFN-γ and IL-4 levels.

[2] = test system: anergic iNKT cells; experiment: Recovery of responsiveness of anergic iNKT cells in vivo: serum cytokines after secondary α-GC injection; set-up: species or system C57BL/6 mice; conditions: 2 μg α-GC, re-injection 14 days later; FIG. 6
Description: 200 μg of the control rat IgG, the anti-PD-1 antibody or the anti-PD-L1 antibody was intraperitoneally injected into C57BL/6 mice 24 hrs before treatment with 2 μg of α-GC. 14 days later, 2 μg of α-GC was injected again, followed by the preparation of sera 2 and 12 hrs after the re-injection for ELISA assay of IL-4 and IFN-γ levels, respectively.

[3] = test system: anergic iNKT cells; experiment: Recovery of responsiveness of anergic iNKT cells in vitro (cytokine ELISA of supernatants); assay type: cell-based, C57BL/6 mice; conditions: pre-treatment with 2 μg α-GC 7 days before restimulation, in presence of control IgG; FIG. 5
Description: The α-GC-induced unresponsiveness of iNKT cells was detected as early as 3 days after primary stimulation and observed to persist until 7~30 days after α-GC stimulation. Thus, C57BL/6 mice were injected with 2 μg of α-GC to induce iNKT cell anergy. One week and one month later, splenocytes were isolated from the mice and 5×10^5 cells were incubated for 3 days with 100 ng/ml of α-GC in the presence of 50 μg/ml of the control rat IgG, the anti-PD-1 mAb, the anti-PD-L1 mAb, or the anti-PD-L2 mAb. Also, splenocytes isolated from the mice were incubated for 3 days with 10 ng/ml of α-GC without mAb, and these were represented by ‘activation’. The supernatants were then assayed for IFN-γ and IL-4 levels by ELISA [*:p<0.05 and **:p<0.01 (vs. control rat IgG)].

[4] = test system: iNKT cells; experiment: Expression of PD-1 and PD ligands on iNKT cells after α-GC administration (FACS); assay type: in vivo, C57BL/6 mice; conditions: FIG. 1
Description: Splenocytes were isolated from C57BL/6 mice administered with 2 μg of α-GC at different time points (0 hr, 6 hrs, 72 hrs, 7 days, one month and two months) after the administration. The cells were stained with a PE-conjugated anti-PD-1 monoclonal antibody, a PE-conjugated anti-PD-L1 monoclonal antibody, a PE-conjugated anti-PD-L2 monoclonal antibody and a PE-conjugated isotype control monoclonal antibody, respectively. iNKT cells were gated on B220^− TCR-β^intα-GC/CD1d:Ig^+ population. PD-1, PD-L1 and PD-L2 expression (open histograms) was analyzed by FACS. Shaded histograms indicate staining with isotype control niAbs.

[5] = test system: B16F10 melanoma metastasis; experiment: B16F10 melanoma metastasis model with anergy-induced iNKT cells: number of pulmonary nodules; assay type: in vivo, C57BL/6 mice; conditions: anergy induced with control IgG and α-GC; α-GC treatment during tumor inoculation; FIG. 10
Description: Anergy-induced iNKT cells were assayed for the recovery of anti-tumor activity by the antibodies of the present invention. In this regard, naive C57BL/6 mice were intraperitoneally injected with 200 μg of the control rat IgG, the anti-PD-1 antibody or the anti-PD-L1 antibody 24 hrs after which injection with 2 μg of α-GC induced iNKT cell anergy. 7 days later, 5×10^5 B16F10 tumor cells were i.v. injected. On Day 0, 4 and 8, the mice were treated with 500 ng of α-GC to induce anti-tumor activity of iNKT cells. 14 days later, the lungs were excised and the nodules formed by cancer metastasis were counted (A). The isolated lungs were observed under an optical microscope (B).

CCCCCCCCCCCCCCCCCCCCCCCCCC(=O)N[C@@H](CO[C@H]1O[C@H](CO)[C@H](O)[C@H](O)[C@H]1O)[C@H](O)[C@H](O)CCCCCCCCCCCCCC [α-GC, α-galactosylceramide]
time of peak blood IFN-γ level after α-GC treatment [1]: ≤ 12 h | time of peak blood IL-4 level after α-GC treatment [1]: ≤ 2 h | serum IFN-γ upon secondary α-GC injection in mice pretreated with α-GC [2]: significantly low | serum IL-4 upon secondary α-GC injection in mice pretreated with α-GC [2]: significantly low | production of IFN-γ on restimulation after α-GC pre-treatment [3]: greatly decrease | production of IL-4 on restimulation after α-GC pre-treatment [3]: greatly decrease | PD-L1 expression on iNKT cells ([4]; after 2 μg α-GC): temporarily increased | persistence of the upregulated PD-1 level on iNKT cells ([4]; after 2 μg α-GC): for two months | time for PD-L1 expression to decline toward naive state levels ([4]; after 2 μg α-GC): ≤ 72 h | PD-L2 expression on iNKT cells ([4]; regardless of activation status): not found | PD-1 expression on iNKT cells ([4]; splenocytes after 2 μg α-GC, 0 hr to two months): upregulated | tumor growth / metastasis with anergic iNKT cells [5]: did not suppress tumor growth
